{"source": "paper PMC7478165", "about": "“Derivatisation of parthenolide to address chemoresistant chronic lymphocytic leukaemia” (MedChemComm, 2019)", "data": [{"test_system": "MEC1 CLL cell line", "test": "cells", "parameters": "alamarBlue (resazurin reduction) viability assay in MEC1 CLL cells", "settings": "Homo sapiens, MEC1, 24 h; read-out: alamarBlue EC50 (uM) average", "from_the_text": "Defective p53-signalling increases genomic instability and drives tumour progression. A high frequency of p53 inactivation is found in relapsed, treatment-resistant, high risk CLL.[30] […] Owing to resource availability a subset of up to ten of these compounds was prioritised for further investigation. Compounds 2d, 2e, 2j, 2aa, 5a, 5d, 5e, 5f, 5ab and 6b were selected on the basis of reasons including ease of synthetic access, diversity across the chemical space probed and novelty. Those prepared under conditions (i)Scheme 1 (2d, 5a and 6b) were available on a scale and in a purity to directly permit follow-up studies, whereas compounds prepared under conditions (ii)Scheme 1 were prepared on a small scale so were resynthesised. These seven compounds (2e, 2j, 2aa, 5d, 5e, 5f and 5ab) were isolated on >30 mg scale in high purity and progressed to more following studies. Biological efforts at Sygnature Discovery (where differing to University of Birmingham) MEC1 cells were obtained from the American Type Culture Collection (Manassas, VA 20110 USA) and were routinely cultured in RPMI 1640 medium (Sigma-Aldrich) supplemented with 1% L-glutamine (Sigma-Aldrich), 1% Penicillin/Streptomycin (Sigma-Aldrich) and 10% FBS (Gibco). The MEC1 proliferation assay was conducted by performing a re-feed of the MEC1 cells 24 h prior to cell seeding. On the day of the assay, cells were seeded into a 384-well assay plate at a density of 12,500 cells/well in 25 μL of complete MEC1 medium. Compound treatment was performed on the day of cell seeding, with compounds prepared as duplicate compound response curves (final DMSO concentration of 0.6%). Post compound treatment, MEC1 assay plates were returned to a 37 °C/5% CO2 incubator for 24 h of incubation. Following compound treatment, cellular viability was determined by measuring reduction of alamarBlue® reagent (Invitrogen). alamarBlue® reagent (2.5 μL) was added to each assay well to give a 1:10 dilution of the neat stock and assay plates were incubated for 3 h at 37 °C/5% CO2. Reduction of alamarBlue® was determined using an Envision Xcite plate reader (Perkin Elmer) with an excitation wavelength of 560 nm set and an emission wavelength of 590 nm set. Cell viability was determined by normalising raw fluorescent data to a cell only high control and Parthenolide treated low control to provide percentage viability readout. Data was plotted and EC50 values extracted and reported EC50s represent an average of at least two independent assays.", "units": {"EC50": "µM"}, "values": [{"compound": "CC1=CCCC2(C)OC2C2OC(=O)C(CN(C)C(C)C)C2CC1", "note": "(centres unmarked) [2b]", "EC50": "> 30"}, {"compound": "CC1=CCCC2(C)OC2C2OC(=O)C(CN(C)CCO)C2CC1", "note": "(centres unmarked) [2c]", "EC50": 5.2}, {"compound": "CC1=CCCC2(C)OC2C2OC(=O)C(CN(C)Cc3ccc(Cl)cc3)C2CC1", "note": "(centres unmarked) [2h]", "EC50": 18.3}, {"compound": "CCOc1cccc(CN(CCO)CC2C(=O)OC3C2CCC(C)=CCCC2(C)OC32)c1", "note": "(centres unmarked) [2i]", "EC50": 19.2}, {"compound": "CC1=CCCC2(C)OC2C2OC(=O)C(CN(C)Cc3n[nH]c4c3CCCCC4)C2CC1", "note": "(centres unmarked) [2k]", "EC50": 19.3}, {"compound": "CCN(Cc1cc(Cl)ccc1OC)CC1C(=O)OC2C1CCC(C)=CCCC1(C)OC21", "note": "(centres unmarked) [2l]", "EC50": 19.8}, {"compound": "CC1=CCCC2(C)OC2C2OC(=O)C(CN(C)Cc3nnc(-c4ccccc4)o3)C2CC1", "note": "(centres unmarked) [2n]", "EC50": "> 30"}, {"compound": "CC1=CCCC2(C)OC2C2OC(=O)C(CN(C)Cc3cccc(C(F)(F)F)c3)C2CC1", "note": "(centres unmarked) [2p]", "EC50": "> 30"}, {"compound": "CC1=CCCC2(C)OC2C2OC(=O)C(CN(C)Cc3nc(-c4ccccn4)no3)C2CC1", "note": "(centres unmarked) [2q]", "EC50": "> 30"}, {"compound": "CC1=CCCC2(C)OC2C2OC(=O)C(CN(Cc3sccc3C)C3CC3)C2CC1", "note": "(centres unmarked) [2r]", "EC50": "> 30"}, {"compound": "CCCc1nc(CN(CC)CC2C(=O)OC3C2CCC(C)=CCCC2(C)OC32)no1", "note": "(centres unmarked) [2s]", "EC50": "> 30"}, {"compound": "CC1=CCCC2(C)OC2C2OC(=O)C(CN(Cc3ccco3)Cc3cccs3)C2CC1", "note": "(centres unmarked) [2t]", "EC50": "> 30"}, {"compound": "CC1=CCCC2(C)OC2C2OC(=O)C(CN(Cc3ccncc3)Cc3ccc4c(c3)OCO4)C2CC1", "note": "(centres unmarked) [2u]", "EC50": "> 30"}, {"compound": "CC1=CCCC2(C)OC2C2OC(=O)C(CN(C)Cc3nc4cc(C)c(C)cc4[nH]3)C2CC1", "note": "(centres unmarked) [2y]", "EC50": "> 30"}, {"compound": "CC1=CCCC2(C)OC2C2OC(=O)C(CNCCO)C2CC1", "note": "(centres unmarked) [4a]", "EC50": 19}, {"compound": "CC1=CCCC2(C)OC2C2OC(=O)C(CNCc3ccc(F)cc3C(F)(F)F)C2CC1", "note": "(centres unmarked) [4aa]", "EC50": "> 30"}, {"compound": "CC1=CCCC2(C)OC2C2OC(=O)C(CNCc3c(F)cccc3C(F)(F)F)C2CC1", "note": "(centres unmarked) [4ab]", "EC50": "> 30"}, {"compound": "CC1=CCCC2(C)OC2C2OC(=O)C(CNCc3ccc(Cl)cc3Cl)C2CC1", "note": "(centres unmarked) [4ac]", "EC50": "> 30"}, {"compound": "CC1=CCCC2(C)OC2C2OC(=O)C(CNCc3c(F)cccc3Cl)C2CC1", "note": "(centres unmarked) [4ad]", "EC50": "> 30"}, {"compound": "COCCNCC1C(=O)OC2C1CCC(C)=CCCC1(C)OC21", "note": "(centres unmarked) [4b]", "EC50": "> 30"}, {"compound": "CC1=CCCC2(C)OC2C2OC(=O)C(CNCc3ccccc3)C2CC1", "note": "(centres unmarked) [4c]", "EC50": 20.4}, {"compound": "C#CCNCC1C(=O)OC2C1CCC(C)=CCCC1(C)OC21", "note": "(centres unmarked) [4d]", "EC50": "> 30"}, {"compound": "CC1=CCCC2(C)OC2C2OC(=O)C(CNCC3CCOCC3)C2CC1", "note": "(centres unmarked) [4f]", "EC50": 23.3}, {"compound": "CC1=CCCC2(C)OC2C2OC(=O)C(CNCCOc3cccc(C)c3)C2CC1", "note": "(centres unmarked) [4h]", "EC50": 21.9}, {"compound": "CC1=CCCC2(C)OC2C2OC(=O)C(CNCc3ccc(Cl)cc3F)C2CC1", "note": "(centres unmarked) [4i]", "EC50": "> 30"}, {"compound": "COc1ccc(-c2noc(CNCC3C(=O)OC4C3CCC(C)=CCCC3(C)OC43)n2)cc1OC", "note": "(centres unmarked) [4k]", "EC50": "> 30"}, {"compound": "CC1=CCCC2(C)OC2C2OC(=O)C(CNCc3c(F)cc(F)cc3F)C2CC1", "note": "(centres unmarked) [4l]", "EC50": "> 30"}, {"compound": "CC1=CCCC2(C)OC2C2OC(=O)C(CNCc3ccco3)C2CC1", "note": "(centres unmarked) [4m]", "EC50": "> 30"}, {"compound": "CC1=CCCC2(C)OC2C2OC(=O)C(CNCc3ccc(N(C)C)cc3)C2CC1", "note": "(centres unmarked) [4n]", "EC50": "> 30"}, {"compound": "COc1ccccc1CNCC1C(=O)OC2C1CCC(C)=CCCC1(C)OC21", "note": "(centres unmarked) [4p]", "EC50": "> 30"}, {"compound": "CC1=CCCC2(C)OC2C2OC(=O)C(CNCc3ccccc3N(C)C)C2CC1", "note": "(centres unmarked) [4q]", "EC50": "> 30"}, {"compound": "CC1=CCCC2(C)OC2C2OC(=O)C(CNCC(C)(C)N3CCOCC3)C2CC1", "note": "(centres unmarked) [4r]", "EC50": "> 30"}, {"compound": "CC1=CCCC2(C)OC2C2OC(=O)C(CNCCc3nccs3)C2CC1", "note": "(centres unmarked) [4s]", "EC50": "> 30"}, {"compound": "CC1=CCCC2(C)OC2C2OC(=O)C(CNCc3c(Cl)cccc3Cl)C2CC1", "note": "(centres unmarked) [4t]", "EC50": "> 30"}, {"compound": "CC1=CCCC2(C)OC2C2OC(=O)C(CNCc3ccccc3C(F)(F)F)C2CC1", "note": "(centres unmarked) [4u]", "EC50": "> 30"}, {"compound": "CC1=CCCC2(C)OC2C2OC(=O)C(CNCc3ccc(C(F)(F)F)cc3)C2CC1", "note": "(centres unmarked) [4v]", "EC50": "> 30"}, {"compound": "CC1=CCCC2(C)OC2C2OC(=O)C(CNCc3ccc(OC(F)(F)F)cc3)C2CC1", "note": "(centres unmarked) [4w]", "EC50": "> 30"}, {"compound": "CC1=CCCC2(C)OC2C2OC(=O)C(CNCc3ccccc3OC(F)(F)F)C2CC1", "note": "(centres unmarked) [4x]", "EC50": "> 30"}, {"compound": "CC1=CCCC2(C)OC2C2OC(=O)C(CNCc3cccc(OC(F)(F)F)c3)C2CC1", "note": "(centres unmarked) [4y]", "EC50": "> 30"}, {"compound": "CC1=CCCC2(C)OC2C2OC(=O)C(CNCc3c(F)cccc3F)C2CC1", "note": "(centres unmarked) [4z]", "EC50": "> 30"}, {"compound": "CC1=CCCC2(C)OC2C2OC(=O)C(CN3CCCCC3)C2CC1", "note": "(centres unmarked) [5b]", "EC50": 7.8}, {"compound": "CC1=CCCC2(C)OC2C2OC(=O)C(CN3CCN(C)CC3)C2CC1", "note": "(centres unmarked) [5c]", "EC50": "> 30"}, {"compound": "CC1=CCCC2(C)OC2C2OC(=O)C(CN3CCC4(CC3)OCCO4)C2CC1", "note": "(centres unmarked) [5g]", "EC50": 15.2}, {"compound": "CCCC1CCN(CC2C(=O)OC3C2CCC(C)=CCCC2(C)OC32)CC1", "note": "(centres unmarked) [5i]", "EC50": 22.2}, {"compound": "COCCN1CCN(CC2C(=O)OC3C2CCC(C)=CCCC2(C)OC32)CC1", "note": "(centres unmarked) [5j]", "EC50": 19.5}, {"compound": "CC1=CCCC2(C)OC2C2OC(=O)C(CN3CCC(N4CCc5ccccc5C4)CC3)C2CC1", "note": "(centres unmarked) [5k]", "EC50": 16.3}, {"compound": "CC1=CCCC2(C)OC2C2OC(=O)C(CN3CCN(c4ncccn4)CC3)C2CC1", "note": "(centres unmarked) [5m]", "EC50": 24.8}, {"compound": "CC1=CCCC2(C)OC2C2OC(=O)C(CN3CCN(Cc4cccc(C)c4)C(=O)C3)C2CC1", "note": "(centres unmarked) [5o]", "EC50": "> 30"}, {"compound": "CC1=CCCC2(C)OC2C2OC(=O)C(CN3CCC(C#N)(c4ccccc4)CC3)C2CC1", "note": "(centres unmarked) [5p]", "EC50": "> 30"}, {"compound": "CC1=CCCC2(C)OC2C2OC(=O)C(CN3CCC(N4CCCCC4)CC3)C2CC1", "note": "(centres unmarked) [5r]", "EC50": "> 30"}, {"compound": "CC1=CCCC2(C)OC2C2OC(=O)C(CN3CCN(C(C)(C)C)CC3)C2CC1", "note": "(centres unmarked) [5s]", "EC50": "> 30"}, {"compound": "CC1=CCCC2(C)OC2C2OC(=O)C(CN3CCN(CCc4cccs4)CC3)C2CC1", "note": "(centres unmarked) [5t]", "EC50": "> 30"}, {"compound": "CC1=CCCC2(C)OC2C2OC(=O)C(CN3CCN(CC4CCCCC4)CC3)C2CC1", "note": "(centres unmarked) [5u]", "EC50": "> 30"}, {"compound": "CC1=CCCC2(C)OC2C2OC(=O)C(CN3CCn4c(nnc4C(F)(F)F)C3)C2CC1", "note": "(centres unmarked) [5v]", "EC50": "> 30"}, {"compound": "CCCCN1CCN(CC2C(=O)OC3C2CCC(C)=CCCC2(C)OC32)CC1", "note": "(centres unmarked) [5x]", "EC50": "> 30"}, {"compound": "CC1=CCCC2(C)OC2C2OC(=O)C(CSCCO)C2CC1", "note": "(centres unmarked) [compound 3]", "EC50": "> 30"}]}]}
